Experimental data published in PubChem BioAssay (NCI).
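Briefly, cells in 96-well plates were exposed to five compound concentrations for 48 h, and endpoints were estimated by linear interpolation. GI50: concentration for 50% inhibition of growth. TGI: concentration producing complete growth inhibition.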

Legend:
Assay in all cases: NCI anticancer screen, dose series, 48 h
[1] = system: SF-295 CNS
[2] = system: KM20L2 colon
[3] = system: HOP-92 NSCLC
[4] = system: SW-620 colon
[5] = system: 786-0 renal
[6] = system: LXFL 529 NSCLC
[7] = system: OVCAR-5 ovarian
[8] = system: ACHN renal
[9] = system: MOLT-4 leukemia
[10] = system: NCI/ADR-RES ovarian

SMILES	TGI [1]	TGI [2]	TGI [3]	TGI [4]	TGI [5]	TGI [6]	TGI [7]	TGI [8]	TGI [9]	GI50 [1]	GI50 [3]	GI50 [4]	GI50 [5]	GI50 [10]	TGI [10]	GI50 [7]	GI50 [8]	GI50 [9]	GI50 [2]	GI50 [6]
C=C1C(=O)OC2CC(C)C3C=CC(=O)C3CC12 (stereo not drawn)	28.9 µM	12.8 µM	4.04 µM	3.69 µM	3.66 µM	2.67 µM	10.4 µM	8.21 µM	4.68 µM	–	–	–	–	–	–	–	–	–	–	–
N#C/C(=C\c1ccc(Br)cc1)n1nnc2ccccc21	8.9 µM	–	1.58 µM	1.57 µM	1.79 µM	–	3.26 µM	2.01 µM	11.4 µM	1.18 µM	0.23 µM	0.318 µM	0.501 µM	0.323 µM	11 µM	1.13 µM	0.521 µM	1.48 µM	–	–
COc1cc2c(c(OC)c1OC)-c1ccc(OC)c(=O)cc1[C@@H](N(C)C=O)CC2	0.0365 µM	–	0.111 µM	> 100 µM	> 100 µM	> 100 µM	> 100 µM	> 100 µM	> 100 µM	–	–	–	–	–	–	–	–	–	–	–
C[C@H](N)C(=O)N1C[C@H](CCCB(O)O)[C@](N)(C(=O)O)C1	> 100 µM	–	> 100 µM	> 100 µM	> 100 µM	–	> 100 µM	> 100 µM	> 100 µM	> 100 µM	> 100 µM	> 100 µM	> 100 µM	> 100 µM	> 100 µM	> 100 µM	> 100 µM	> 100 µM	–	–
COc1cc(/C=C(\OC(C)=O)c2ccc3c(c2)OCO3)cc(OC)c1OC	98.6 µM	> 100 µM	45.4 µM	> 100 µM	> 100 µM	34.9 µM	> 100 µM	69.3 µM	43.4 µM	–	–	–	–	–	–	–	–	–	–	–
CCC(C(=O)c1ccccc1)C(CCCC(=O)Nc1c(C)cccc1C)N=O (stereo not drawn)	> 100 µM	> 100 µM	> 100 µM	> 100 µM	> 100 µM	> 100 µM	> 100 µM	> 100 µM	> 100 µM	–	–	–	–	–	–	–	–	–	–	–
Cc1ccc2c(c1)CNc1ccc(C)cc1CN2	> 100 µM	–	> 100 µM	> 100 µM	> 100 µM	> 100 µM	> 100 µM	> 100 µM	> 100 µM	–	–	–	–	–	–	–	–	–	–	–
O=C(NCc1ccncc1)C1COc2cc(-c3cc(=O)c4ccccc4o3)ccc2O1 (stereo not drawn)	> 100 µM	> 100 µM	> 100 µM	> 100 µM	> 100 µM	> 100 µM	> 100 µM	> 100 µM	> 100 µM	–	–	–	–	–	–	–	–	–	–	–
COc1ccc2c(c1)C1(C(=O)N2)C(C#N)=C(c2ccccc2)Nc2c1c(-c1ccccc1)nn2-c1ccccc1 (stereo not drawn)	21.1 µM	–	6.34 µM	4.23 µM	4.94 µM	–	19.8 µM	19.4 µM	11 µM	8.86 µM	2.34 µM	1.98 µM	2.03 µM	31.9 µM	> 100 µM	5.46 µM	6.16 µM	3.37 µM	–	–
CN1CCN(c2ccc(C(=O)Nc3cc(-c4cccc(NS(=O)(=O)c5ccccc5)c4)[nH]n3)cc2)CC1	20.9 µM	–	16.2 µM	27.2 µM	24.2 µM	–	46.6 µM	26.7 µM	12.5 µM	3.69 µM	2.54 µM	5.86 µM	4.8 µM	> 100 µM	> 100 µM	13.8 µM	7.6 µM	3 µM	–	–
Fc1ccc2[nH]cc(SSc3c[nH]c4ccc(F)cc34)c2c1	11.2 µM	–	7.92 µM	26 µM	24.8 µM	–	39.9 µM	34.3 µM	33.4 µM	3.04 µM	1.95 µM	8.22 µM	6.8 µM	7.1 µM	> 100 µM	12.7 µM	4.34 µM	2.71 µM	–	–
COc1ccc2c(c1)/C(=C/c1cc(OC)c(OC)c(OC)c1)C(=O)N2C	> 100 µM	–	> 100 µM	8.66 µM	23.7 µM	–	> 100 µM	> 39.5 µM	7.56 µM	2.78 µM	3.01 µM	1.59 µM	3.82 µM	3.37 µM	> 39.7 µM	5.49 µM	3.6 µM	1.89 µM	–	–
CC(C)C(=O)/C=C/c1ccc(Cl)c(Cl)c1	29.4 µM	37.8 µM	34.7 µM	36.3 µM	27.6 µM	40.2 µM	36.8 µM	32.7 µM	> 100 µM	–	–	–	–	–	–	–	–	–	–	–
Cc1ccc(Oc2ccc([N+](=O)[O-])cc2[N+](=O)[O-])c(C)c1	> 100 µM	–	–	> 100 µM	> 100 µM	> 100 µM	> 100 µM	> 100 µM	79.4 µM	–	–	–	–	–	–	–	–	–	–	–
CC(C)c1ccc(NC(=S)NC(=O)c2ccccc2)cc1	32.5 µM	–	> 100 µM	62.8 µM	46.4 µM	–	> 100 µM	55.9 µM	52.3 µM	–	–	–	–	–	> 100 µM	–	–	–	–	–
C1COCCOCCOCCOCCO1.CC(=O)[CH-]C(C)=O.CC(=O)[CH-]C(C)=O.CC(=O)[CH-]C(C)=O.[V]	22 µM	61.7 µM	44.7 µM	> 100 µM	12.9 µM	41.2 µM	–	44.1 µM	41.4 µM	7.9 µM	11.2 µM	22.9 µM	2.96 µM	–	–	–	12 µM	20.6 µM	27.4 µM	20.7 µM
c1ccc(COC2(OCc3ccccc3)CC3OC2C2NN=NC32)cc1 (stereo not drawn)	62.4 µM	> 100 µM	40.8 µM	33.6 µM	34.8 µM	29.3 µM	> 100 µM	> 100 µM	37.9 µM	–	–	–	–	–	–	–	–	–	–	–
NC(=O)c1ccc2nc3c(n2c1)C(=O)C(=O)c1ccccc1-3	3.07 µM	–	3.33 µM	4.05 µM	2.99 µM	–	3.15 µM	2.62 µM	4.21 µM	1.67 µM	1.77 µM	1.88 µM	1.63 µM	1.88 µM	6.19 µM	1.72 µM	1.34 µM	1.02 µM	–	–
